The subject of one test is WiDr. The test can be described thus: Cytotoxicity against Homo sapiens (human) WiDr cells by MTT assay. It is filed as functional, cell-based.
Another test deals with Aspergillus niger. The test is described as follows: Antifungal activity against Aspergillus niger at 50 ug/ml after 48 hr by agar plate diffusion method. The test is classed as functional.
In the next test the test system is HepG2. The test can be described thus: Cytotoxicity against Homo sapiens (human) HepG2 cells by MTT assay. It is filed as functional, cell-based.
Another test deals with Staphylococcus aureus. The test can be described thus: Antibacterial activity against Staphylococcus aureus at 10 ug/ml after 24 hr by disk diffusion method. The test is classed as functional. Particulars: read-out: DIZ.
For another test, the system named is Klebsiella pneumoniae. The test can be described thus: Antibacterial activity against Klebsiella pneumoniae at 10 ug/ml after 24 hr by disk diffusion method. It is filed as functional. The following applies: read-out: DIZ.
The next test has as its system MCF7. The test is described as follows: Cytotoxicity against Homo sapiens (human) MCF7 cells by MTT assay. The test is classed as functional, cell-based.
Another test deals with Aspergillus flavus. The test is described as follows: Antifungal activity against Aspergillus flavus at 50 ug/ml after 48 hr by agar plate diffusion method. The test is classed as functional.
For the next test, the system named is Pseudomonas aeruginosa. The test can be described thus: Antibacterial activity against Pseudomonas aeruginosa at 10 ug/ml after 24 hr by disk diffusion method. It is filed as functional. Particulars: read-out: DIZ.
For another test, the system named is HeLa. The test is described as follows: Cytotoxicity against Homo sapiens (human) HeLa cells by MTT assay. It is filed as functional, cell-based.

From ChEMBL document CHEMBL3045673, “Synthesis of some novel 2-substituted benzoxazoles as anticancer, antifungal, and antimicrobial agents” (2008) come the findings set out here.

Active and inactive are the calls of the source. The rule behind the calls is not given here.

On to `COc1cc(/C=C(\C#N)c2nc3cc(Cl)ccc3o2)cc(OC)c1OC`, for which the result with WiDr, in the test on HepG2, in the test on MCF7 and in the test with HeLa was Active. Further, the values for the inhibition at 50 µg/mL in the test on Aspergillus niger and in the test with Aspergillus flavus were 80% and 85%, respectively. In addition, the zone of inhibition at 10 µg/mL in the test on Staphylococcus aureus stood at 15 mm; in the test on Klebsiella pneumoniae, 10 mm; with Pseudomonas aeruginosa it was 15 mm.

As to `COc1ccc(/C=C(\C#N)c2nc3cc(Cl)ccc3o2)cc1`, the outcome in the test on WiDr, with HepG2, with MCF7 and with HeLa was Active. Further, the inhibition at 50 µg/mL with Aspergillus niger and in the test with Aspergillus flavus was 65% in each case. Also, the zone of inhibition at 10 µg/mL with Staphylococcus aureus came out at 5 mm; with Klebsiella pneumoniae, 10 mm; in the test with Pseudomonas aeruginosa, 10 mm.

Consider `N#C/C(=N\Nc1ccc(Br)cc1)c1nc2cc(Cl)ccc2o1`, for which the outcome in the test with WiDr was inactive. The outcome in the test with HepG2, with MCF7 and with HeLa was Active. Also, the zone of inhibition at 10 µg/mL in the test with Staphylococcus aureus, in the test on Klebsiella pneumoniae and in the test on Pseudomonas aeruginosa was 10 mm in each case.

With `COc1ccc(N/N=C(\C#N)c2nc3cc(Cl)ccc3o2)cc1`, the result in the test with WiDr, with HepG2, with MCF7 and with HeLa was Active. Moreover, the figures for the inhibition at 50 µg/mL in the test with Aspergillus niger and in the test with Aspergillus flavus were 65% and 50%, respectively. The zone of inhibition at 10 µg/mL is 10 mm in the test on Staphylococcus aureus, 5 mm in the test with Klebsiella pneumoniae and 5 mm with Pseudomonas aeruginosa.

As to `COc1cc(/C=C(\C#N)c2nc3cc(F)ccc3o2)cc(OC)c1OC`, the result in the test on WiDr, with HepG2, in the test on MCF7 and in the test on HeLa was Active. Besides, the inhibition at 50 µg/mL with Aspergillus niger was determined as 95%; in the test with Aspergillus flavus it was 90%. Moreover, the zone of inhibition at 10 µg/mL in the test on Staphylococcus aureus is 20 mm; with Klebsiella pneumoniae, 15 mm; with Pseudomonas aeruginosa, 20 mm.

Regarding `N#C/C(=C\c1ccc(O)cc1)c1nc2cc(Cl)ccc2o1`, the result in the test with WiDr and in the test with MCF7 was inactive. Besides, the figures for the inhibition at 50 µg/mL in the test on Aspergillus niger and in the test with Aspergillus flavus were 50% and 60%, respectively. Further, the result with HepG2 and in the test on HeLa was Active. For the same molecule, the zone of inhibition at 10 µg/mL in the test with Staphylococcus aureus, with Klebsiella pneumoniae and in the test with Pseudomonas aeruginosa was 10 mm each time.

Consider `N#CC(=C1CCCC1)c1nc2cc(Cl)ccc2o1`, for which the outcome with WiDr, in the test on HepG2, with MCF7 and with HeLa was Active. Also, the inhibition at 50 µg/mL in the test with Aspergillus niger stood at 75%; with Aspergillus flavus, 60%. The zone of inhibition at 10 µg/mL with Staphylococcus aureus stood at 15 mm; in the test with Klebsiella pneumoniae, 10 mm; in the test with Pseudomonas aeruginosa it was 10 mm.

For `N#C/C(=N\Nc1ccccc1)c1nc2cc(Cl)ccc2o1`, the result in the test on WiDr and in the test with MCF7 was inactive. The result in the test with HepG2 and in the test with HeLa was Active. Besides, the zone of inhibition at 10 µg/mL in the test on Staphylococcus aureus, with Klebsiella pneumoniae and in the test with Pseudomonas aeruginosa was 10 mm in each case.

With `N#C/C(=N\Nc1ccc(Cl)cc1)c1nc2cc(Cl)ccc2o1`, the outcome in the test with WiDr, with HepG2 and in the test on HeLa was inactive. For the same molecule, the inhibition at 50 µg/mL in the test on Aspergillus niger is 70%; in the test on Aspergillus flavus, 65%. In addition, the results for the zone of inhibition at 10 µg/mL in the test with Staphylococcus aureus, with Klebsiella pneumoniae and in the test on Pseudomonas aeruginosa were 5 mm, 10 mm and 10 mm, respectively. The outcome in the test on MCF7 was Active.

`N#CC(=C1CCCCC1)c1nc2cc(Cl)ccc2o1`: the outcome in the test on WiDr, with HepG2 and with HeLa was Active. For the same molecule, the inhibition at 50 µg/mL with Aspergillus niger amounted to 60%; in the test with Aspergillus flavus it was 75%. Besides, the zone of inhibition at 10 µg/mL in the test on Staphylococcus aureus was found to be 10 mm; in the test on Klebsiella pneumoniae it was 5 mm; in the test on Pseudomonas aeruginosa, 10 mm. Besides, the result in the test with MCF7 was inactive.

As to `N#C/C(=C\c1ccccc1)c1nc2cc(Cl)ccc2o1`, the outcome in the test with WiDr, in the test on HepG2 and with HeLa was inactive. The inhibition at 50 µg/mL in the test with Aspergillus niger worked out at 65%; in the test with Aspergillus flavus, 60%. For the same molecule, the zone of inhibition at 10 µg/mL in the test with Staphylococcus aureus, in the test with Klebsiella pneumoniae and in the test on Pseudomonas aeruginosa was 10 mm throughout. Moreover, the outcome in the test with MCF7 was Active.
